Structures are written as SMILES.

One series addresses NDM-1 (Klebsiella pneumoniae, UniProt C7C422). The experiment in a line: biochemical. It is filed as biochemical. To be noted: CCF2-FA fluorescence assay, 2 hours at 25° C. The method, boiled down:
(§1)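 IC50s come from 4-parameter fits of inhibition versus inhibitor concentration, tested from 20 μM down to 0.00063 μM. Enzyme, CCF2-FA (1.25 μM) and inhibitor react 2 h at 25° C, pH 7, with 10 μM ZnSO4 and 0.005% Tween-20.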

Another series has as its target IMP-1 (Serratia marcescens, UniProt P52699). The experiment in a line: biochemical. To be noted: CCF2-FA fluorescence assay, 2 hours at 25° C.; read-out: IMP1 IC50. In a few lines:
as §1

Another series addresses VIM-1 (Pseudomonas aeruginosa (strain ATCC 15692 / DSM 22644 / CIP 104116 / JCM 14847 / LMG 12228 / 1C / PRS 101 / PAO1), UniProt A0A0F7KYQ8). Kind of series: biochemical. The following applies: CCF2-FA fluorescence assay, 2 hours at 25° C.; read-out: VIM1 IC50. In a few lines:
as §1

Another series addresses VIM-2 (Escherichia coli, UniProt Q5U7L7). The experiment in a line: biochemical. To be noted: CCF2-FA fluorescence assay; read-out: VIM2 IC50.
Series [1] has as its system Escherichia coli expressing NDM-1 (CLB30016). It is filed as cell-based. To be noted: with imipenem 1 μg/ml; 95% inhibition of bacterial growth. The method, boiled down:
(§2)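 Clinical MBL-producing strains grown overnight at 35° C, diluted 1:100 into CAMHB, then exposed to test compound with imipenem at 1 μg/ml for 22–24 h at 35° C. Absorbance read-out; MITC95 is the lowest compound concentration giving 95% growth inhibition with imipenem.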

For series [2], the system named is Klebsiella pneumoniae expressing VIM-1 (IHMA599644). The class given is cell-based. To be noted: with imipenem 1 μg/ml; 95% inhibition of bacterial growth. The method, boiled down:
as §2

Series [3] has as its system Serratia marcescens expressing IMP-1 (CL5741). It is filed as cell-based. The following applies: with imipenem 1 μg/ml; 95% inhibition of bacterial growth. The method, boiled down: as §2
The test system of series [4] is P. aeruginosa MB9798 (efflux+, IMP-1 plasmid). The following applies: for MB9798 MITC95 P. aeruginosa uM Efflux WT: efflux + (MB9798) strain, imipenem at 2 μg/mL, in the presence of a class A, C, D serine β-lactamase inhibitor closely related to relebactam; for Efflux ratio: fold difference between efflux+ (MB9798) and efflux− (MB9799) strains. The method, boiled down: (§3)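 Isogenic P. aeruginosa PAO1 strains (efflux+ and multiple-efflux-pump-disrupted) carrying plasmid IMP-1, with inducible AmpC, tested by broth microdilution. Imipenem and/or ceftazidime fixed, usually at CLSI breakpoint, plus fixed class A/C β-lactamase inhibitor; titrated MBL inhibitor concentration restoring susceptibility recorded and compared between strains as efflux fold difference.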

In series [5] the test system is P. aeruginosa MB9799 (efflux-, IMP-1 plasmid). The class given is cell-based, Pseudomonas aeruginosa. To be noted: efflux − (MB9799) strain; imipenem at 2 μg/mL; in the presence of a class A, C, D serine β-lactamase inhibitor closely related to relebactam. In a few lines: as §3

Sequence of IMP-1 (P52699 whole entry, looked up, species assumed): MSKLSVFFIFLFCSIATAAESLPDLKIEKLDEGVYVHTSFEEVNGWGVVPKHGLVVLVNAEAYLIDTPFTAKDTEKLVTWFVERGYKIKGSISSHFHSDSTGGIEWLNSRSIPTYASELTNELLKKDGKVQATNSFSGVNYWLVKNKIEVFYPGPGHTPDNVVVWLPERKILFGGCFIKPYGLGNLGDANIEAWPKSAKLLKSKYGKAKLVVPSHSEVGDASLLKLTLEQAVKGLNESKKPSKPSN
Sequence of NDM-1 (C7C422 whole entry, looked up, species assumed): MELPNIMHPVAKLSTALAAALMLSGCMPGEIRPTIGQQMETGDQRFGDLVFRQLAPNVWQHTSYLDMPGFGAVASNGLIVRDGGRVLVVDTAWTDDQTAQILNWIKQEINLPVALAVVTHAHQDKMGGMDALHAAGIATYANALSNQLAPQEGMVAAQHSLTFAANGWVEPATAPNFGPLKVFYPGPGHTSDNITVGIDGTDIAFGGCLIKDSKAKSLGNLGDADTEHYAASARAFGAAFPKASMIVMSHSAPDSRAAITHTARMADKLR

With `NCC1CCCN(c2ccc(S(=O)(=O)NC[C@H](O)CN)c(S(N)(=O)=O)c2-c2nn[nH]n2)CC1` (stereo partly drawn) [Example 139, N1-((R)-3-amino-2-hydroxypropyl)-4-(4-(aminomethyl)azepan-1-yl)-3-(2H-tetrazol-5-yl)benzene-1,2-disulfonamide bis(2,2,2-trifluoroacetate)], the IC50 against NDM-1 turned out to be 18.2 nM; on IMP-1 it was 18.5 nM; on VIM-1, 0.39 nM; at VIM-2 it was 4.52 nM. For the same compound, the “CLB30016 E. coli MITC95 NDM” value in series [1] worked out at 0.78 µM. For the same compound, in series [2], the “IHMA599644 K. pneumoniae MITC95 VIM” value came to 1.56 µM. Further, the “CL5741 S. marcescens MITC95 IMP” value in series [3] was determined as 0.78 µM. Moreover, the “MB9798 MITC95 P. aeruginosa uM Efflux WT” value in series [4] was 1.56 µM. Besides, the Efflux ratio in [4] is on record as 2.00. Besides, the “MB9799 MITC95 P. aeruginosa uM Efflux Mutant” value in [5] stood at 0.78 µM.
On to `CN(C)CC1(O)CCN(c2ccc(S(=O)(=O)N[C@@H]3CCNC3)c(S(N)(=O)=O)c2-c2nnn[nH]2)CC1` [Example 100, 4-{4-[(dimethylamino)methyl]-4-hydroxypiperidin-1-yl}-N1-[(3R)-pyrrolidin-3-yl]-3-(1H-tetrazol-5-yl)benzene-1,2-disulfonamide], for which the IC50 against NDM-1 is 17.5 nM; at IMP-1, 37 nM; on VIM-1, 12.4 nM; at VIM-2 it was 162 nM. For the same compound, the “CLB30016 E. coli MITC95 NDM” value in series [1] was 12.50 µM. Besides, the “IHMA599644 K. pneumoniae MITC95 VIM” value in series [2] is 12.50 µM. In series [3], the “CL5741 S. marcescens MITC95 IMP” value worked out at 6.25 µM. Also, in series [4], the “MB9798 MITC95 P. aeruginosa uM Efflux WT” value came out at 12.50 µM. In [4], the Efflux ratio is on record as 2.00. Besides, in [5], the “MB9799 MITC95 P. aeruginosa uM Efflux Mutant” value was found to be 6.25 µM.
Take `NS(=O)(=O)c1c(S(=O)(=O)N[C@@H]2CCNC2)ccc(N2CCC(Oc3ccccn3)CC2)c1-c1nnn[nH]1` [Example 110, 4-[4-(pyridin-2-yloxy)piperidin-1-yl]-N1-[(3R)-pyrrolidin-3-yl]-3-(1H-tetrazol-5-yl)benzene-1,2-disulfonamide]: the IC50 against NDM-1 was found to be 0.06 nM; at IMP-1, 0.1 nM; at VIM-1, 0.12 nM; at VIM-2, 0.47 nM. For the same compound, the “CLB30016 E. coli MITC95 NDM” value in [1] came out at 3.13 µM. Also, the “IHMA599644 K. pneumoniae MITC95 VIM” value in series [2] came to 6.25 µM. The “CL5741 S. marcescens MITC95 IMP” value in series [3] was 3.13 µM. Also, in series [4], the “MB9798 MITC95 P. aeruginosa uM Efflux WT” value was 50.00 µM. In addition, the Efflux ratio in series [4] came to 31.99. Moreover, the “MB9799 MITC95 P. aeruginosa uM Efflux Mutant” value in series [5] was 1.56 µM.
Regarding `CN1CCOC2(C1)CN(c1ccc(S(=O)(=O)N[C@@H]3CCNC3)c(S(N)(=O)=O)c1-c1nnn[nH]1)C2` [Example 115, 4-(8-methyl-5-oxa-2,8-diazaspiro[3.5]non-2-yl)-N1-[(3R)-pyrrolidin-3-yl]-3-(1H-tetrazol-5-yl)benzene-1,2-disulfonamide], the IC50 against NDM-1 came out at 6.14 nM; at IMP-1, 6.06 nM; at VIM-1, 2.1 nM; on VIM-2, 19.2 nM. Further, the “CLB30016 E. coli MITC95 NDM” value in series [1] turned out to be 0.39 µM. Also, the “IHMA599644 K. pneumoniae MITC95 VIM” value in series [2] is 3.13 µM. Moreover, the “CL5741 S. marcescens MITC95 IMP” value in series [3] was determined as 0.78 µM. Also, the “MB9798 MITC95 P. aeruginosa uM Efflux WT” value in [4] was 12.50 µM. For the same compound, in [4], the Efflux ratio is listed as 16.00. In addition, the “MB9799 MITC95 P. aeruginosa uM Efflux Mutant” value in series [5] came out at 0.78 µM.
For the compound `NC[C@@H](O)CNS(=O)(=O)c1ccc(N2CCC(CNCCO)CC2)c(-c2nn[nH]n2)c1S(N)(=O)=O` [Example 123, (R)-N1-(3-amino-2-hydroxypropyl)-4-(4-(((2-hydroxyethyl)amino)methyl)piperidin-1-yl)-3-(2H-tetrazol-5-yl)benzene-1,2-disulfonamide], the IC50 at NDM-1 was found to be 10.8 nM; at IMP-1 it was 6.18 nM; at VIM-1, 0.25 nM; at VIM-2, 7.51 nM. Moreover, in series [1], the “CLB30016 E. coli MITC95 NDM” value came to 0.39 µM. The “IHMA599644 K. pneumoniae MITC95 VIM” value in series [2] is 1.56 µM. For the same compound, the “CL5741 S. marcescens MITC95 IMP” value in series [3] was determined as 0.39 µM. Further, in [4], the “MB9798 MITC95 P. aeruginosa uM Efflux WT” value came to 1.56 µM. For the same compound, in [4], the Efflux ratio is 2.00. Also, the “MB9799 MITC95 P. aeruginosa uM Efflux Mutant” value in series [5] amounted to 0.78 µM.
As for `NC(=O)[C@@H]1CN(c2ccc(S(=O)(=O)N[C@@H]3CCNC3)c(S(N)(=O)=O)c2-c2nn[nH]n2)CCN1` [Example 196, (S)-4-(4-(N—((R)-pyrrolidin-3-yl)sulfamoyl)-3-sulfamoyl-2-(2H-tetrazol-5-yl)phenyl)piperazine-2-carboxamide], the 50% inhibitory concentration (IC50) at NDM-1 worked out at 0.72 nM; on IMP-1, 3.26 nM; on VIM-1 it was 0.44 nM; on VIM-2 it was 1.7 nM. In series [1], the “CLB30016 E. coli MITC95 NDM” value was determined as 0.29 µM. Also, the “IHMA599644 K. pneumoniae MITC95 VIM” value in series [2] amounted to 1.17 µM. For the same compound, in [3], the “CL5741 S. marcescens MITC95 IMP” value is 0.20 µM. Moreover, in series [4], the “MB9798 MITC95 P. aeruginosa uM Efflux WT” value was 2.34 µM. The Efflux ratio in series [4] came to 3.00. In series [5], the “MB9799 MITC95 P. aeruginosa uM Efflux Mutant” value is 0.78 µM.
Regarding `NS(=O)(=O)c1c(S(=O)(=O)N[C@@H]2CCNC2)ccc(N2CCNC(CO)CC2)c1-c1nn[nH]n1` (stereo partly drawn) [Example 127, 4-(5-(hydroxymethyl)-1,4-diazepan-1-yl)-N1-((R)-pyrrolidin-3-yl)-3-(2H-tetrazol-5-yl)benzene-1,2-disulfonamide], the IC50 at NDM-1 worked out at 18.9 nM; at IMP-1, 33.7 nM; on VIM-1 it was 1.25 nM; on VIM-2, 24.6 nM. Further, the “CLB30016 E. coli MITC95 NDM” value in series [1] was determined as 0.39 µM. Also, the “IHMA599644 K. pneumoniae MITC95 VIM” value in series [2] is 0.78 µM. In addition, in series [3], the “CL5741 S. marcescens MITC95 IMP” value is 0.78 µM. In addition, the “MB9798 MITC95 P. aeruginosa uM Efflux WT” value in series [4] was determined as 3.13 µM. Moreover, the Efflux ratio in series [4] worked out at 4.00. Also, the “MB9799 MITC95 P. aeruginosa uM Efflux Mutant” value in series [5] turned out to be 0.78 µM.
Consider `COC(=O)C1CCN(c2ccc(S(=O)(=O)N[C@@H]3CCNC3)c(S(N)(=O)=O)c2-c2nn[nH]n2)CCN1.Cl` (stereo partly drawn) [Example 164, Methyl 1-(4-(N-((R)-pyrrolidin-3-yl)sulfamoyl)-3-sulfamoyl-2-(2H-tetrazol-5-yl)phenyl)-1,4-diazepane-5-carboxylate hydrochloride], for which the IC50 against NDM-1 came to 0.63 nM; at IMP-1, 0.54 nM; on VIM-1, 0.12 nM; at VIM-2 it was 0.69 nM. Moreover, the “CLB30016 E. coli MITC95 NDM” value in series [1] was found to be 0.39 µM. For the same compound, in [2], the “IHMA599644 K. pneumoniae MITC95 VIM” value stood at 3.13 µM. Moreover, the “CL5741 S. marcescens MITC95 IMP” value in series [3] worked out at 1.56 µM. For the same compound, the “MB9798 MITC95 P. aeruginosa uM Efflux WT” value in series [4] is 6.25 µM. For the same compound, the Efflux ratio in [4] was found to be 2.00. In addition, the “MB9799 MITC95 P. aeruginosa uM Efflux Mutant” value in series [5] worked out at 3.13 µM.
`NCCC1CCN(c2ccc(S(=O)(=O)N[C@@H](CN)CO)c(S(N)(=O)=O)c2-c2nn[nH]n2)CC1` [Example 187, (S)-N1-(1-amino-3-hydroxypropan-2-yl)-4-(4-(2-aminoethyl)piperidin-1-yl)-3-(2H-tetrazol-5-yl)benzene-1,2-disulfonamide]: the IC50 against NDM-1 was 0.13 nM; at IMP-1, 0.24 nM; at VIM-1, 0.03 nM; at VIM-2, 0.49 nM. Further, in series [1], the “CLB30016 E. coli MITC95 NDM” value turned out to be 0.78 µM. In addition, in [2], the “IHMA599644 K. pneumoniae MITC95 VIM” value is 0.78 µM. Moreover, the “CL5741 S. marcescens MITC95 IMP” value in [3] stood at 0.78 µM. Also, the “MB9798 MITC95 P. aeruginosa uM Efflux WT” value in series [4] was found to be 0.39 µM. Besides, in series [4], the Efflux ratio turned out to be 1.00. The “MB9799 MITC95 P. aeruginosa uM Efflux Mutant” value in [5] turned out to be 0.39 µM.

The values are drawn from patent US11207312B2, “Metallo-beta-lactamase inhibitors and methods of use thereof” (priority 2017, dated 2021).
